Data reported in patent US20250367229A1, “Treatment of Immune-Related Disorders, Kidney Disorders, Liver Disorders, Hemolytic Disorders, and Oxidative Stress-Associated Disorders Using NRH, NARH and Reduced Derivatives Thereof” (MitoPower LLC, priority 2021, published 2025).

Experiments:
[1] = tested on: CD8^+ T cells; test: Ex vivo polyclonal immune activation model: intracellular cytokine production in CD8+ T cells (flow cytometry); format: cell-based, human; conditions: 250 μM, 18 hours, PBMCs stimulated with anti-CD3 and anti-CD28 antibodies; p<0.05 Mann-Whitney U test
Method: (§1) Heparinized venous blood was collected from healthy human adult donors. Peripheral blood mononuclear cells (PBMCs) were isolated by Ficoll-Hypaque density-gradient centrifugation. PBMCs (1.0×10^6) were seeded in round-bottom, 96-well plates in 200 μL of medium, unstimulated or stimulated with an anti-CD3 antibody ([…], clone-HIT3a, Biolegend) plus an anti-CD28 antibody (1 μg/mL, clone-CD28.2, Biolegend) to induce T-cell activation, and incubated in cell-culture medium. The PBMCs were unstimulated or stimulated with anti-CD3 and anti-CD28 antibodies to induce T-cell activation, in the absence or presence of 250 μM NRH. After 18 hours of incubation, lymphocytes were analyzed for intracellular levels of IFN-γ, TNF-α and IL-2 by flow cytometry. Intracellular cytokine production was stopped by treating the cells with Golgi stop after 1 hr of treatment.

[2] = tested on: CD4^+ T cells; test: Ex vivo polyclonal immune activation model: cytokine production in CD4+ T cells; format: cell-based, human; conditions: stimulated with anti-CD3 and anti-CD28 antibodies; data not shown
Method: as §1

[3] = tested on: CD8^+ T cells; test: Mitochondrial membrane depolarization (JC-1, flow cytometry) in CD8+ T cells; format: cell-based, human; conditions: 250 μM, 24 hr, unstimulated or stimulated with anti-CD3 and anti-CD28 antibodies
Method: (§2) PBMCs (10^6 cells per test group) obtained from healthy human adult donors were unstimulated or stimulated with anti-CD3 and anti-CD28 antibodies to induce T-cell activation, in the absence or presence of 250 μM of NRH or NRH-triacetate (NRHTA). Measurements were made at 5, 15 and 24 hr after treatment.
(§3) After the indicated time of incubation, the PBMCs were stained with anti-CD3, anti-CD4 and anti-CD8 antibodies (Biolegend), JC-1 (1 μM, Thermo Fisher) and annexin V (Thermo Fisher) prior to analysis by flow cytometry. Annexin V binds to cell-surface phosphatidylserine, which is a marker for different forms of cell death including apoptosis and necrosis. The stained cells were re-suspended in phosphate-buffered saline (PBS) and acquired in a Cytek Aurora flow cytometer using a FlowJo software (v10) for analysis. About 200,000-300,000 cells were acquired in the flow cytometer for analysis. Standard procedures for spectral compensation were performed to obtain cell populations. Lymphocytes identified by forward and side scatter were gated to obtain CD3^+/CD4^+ and CD3^+/CD8^+ T-cell populations. Those T-cell populations were gated to identify the red and green signals for JC-1 aggregate and monomer, respectively, and annexin V. The percentage of cells staining green by JC-1 monomer was used to determine the percentage of cells with depolarized mitochondria. […]

[4] = tested on: CD8^+ T cells; test: Cell death including apoptosis (annexin V, flow cytometry) of CD8+ T cells with depolarized mitochondria; format: cell-based, human; conditions: 250 μM, 24 hr, unstimulated or stimulated with anti-CD3 and anti-CD28 antibodies
Method: as §2, §3

[5] = tested on: red blood cells (RBCs); test: H2O2-induced hemolysis in vitro; format: cell-based; conditions: 2000, 200 and 20 μM, pre-incubation 1 hr at 37° C., then H2O2 4 hr
Method: Individual test compounds were dissolved in 0.9% normal saline to prepare 0.3 M stock solutions. A 0.3 M stock solution was added to a 20% suspension of washed red blood cells (RBCs) in saline to obtain final concentrations of 2000 μM, 200 μM and 20 μM of the compound. The RBC suspensions were incubated with the test compound at 37° C. for 1 hr prior to testing. A 2.5% H2O2 solution was prepared fresh by dilution with normal saline and chilled at 2-8° C. before use. Each RBC suspension containing the test compound was split into tubes A and B. 250 μL of the chilled H2O2 solution was added to 250 μL of RBC suspension in each tube while maintaining the tubes in an ice bath. The tubes were incubated at 37° C. for 4 hr, and then 4.5 mL of saline or de-ionized water was added to tube A or tube B, respectively. After the tubes were incubated for 10 min, the mixture in the tubes was centrifuged at 1800 g, and then absorbance was measured in the supernatant at 540 nm. The percentage of hemolysis was calculated as: […]

[6] = Stability in human serum in vitro (absorbance over time); format: in vitro ADME; conditions: 100 μM, 37° C.
Method: Three blood samples were collected from healthy human donors with the same blood group in serum separator vacutainer gel tubes. The samples were centrifuged at 1,800 g to separate serum. The serum samples obtained were pooled together into a separate tube.
NR, NRH and NRH-triacetate (NRHTA) were initially dissolved in DMSO and then diluted with normal saline to obtain a 1 mM stock solution of each compound. 100 μL of stock solution was added to 900 μL of pooled serum to assess the stability of the test compound in human serum. 200 μL of saline with 1,800 μL of pooled serum was used to prepare a solution for blanking and as a reference measurement. The stock solutions were diluted in the pooled serum and normal saline to prepare 100 μM solutions of the test compounds.
In previous experiments, spectral scans between 190 nm and 1100 nm were performed to determine absorbance maxima for NR, NRH and NRHTA, which have maximal absorbance at 265 nm, 340 nm and 331 nm, respectively, in solution.
The stability of a test compound in human serum was determined by a change in the concentration of the compound as measured by a change in absorbance at the maximal absorbance wavelength for the compound as a function of time. The test compounds at 100 μM were incubated in human serum at 37° C. Absorbance measurements were made at 0 min (T0), 5 min, 30 min, 120 min, 240 min, 360 min and 1440 min (24 hr). The relative change in absorbance compared to T0 was plotted and used for statistical analysis. The analysis was performed in triplicates.

## NC(=O)C1=CN([C@@H]2O[C@H](CO)[C@@H](O)[C@H]2O)C=CC1 [NRH, N-(β-D-ribofuranosyl)dihydronicotinamide]
[1]
  production of IFN-γ in activated CD8+ T cells: significantly reduced
  production of IL-2 in activated CD8+ T cells: significantly reduced
  production of TNF-α in activated CD8+ T cells: significantly reduced
[2]
  production of pro-inflammatory cytokines (e.g., TNF-α, IL-2, IFN-γ) by CD4+ T cells: reduced production of pro-inflammatory cytokines
[3]
  mitochondrial membrane depolarization in CD8+ T cells: significantly induced
[4]
  cell death including apoptosis of CD8+ T cells with depolarized mitochondria: reduced cell death
[5]
  H2O2-induced hemolysis: reduced H2O2-induced hemolysis
[6]; 6 hr
  compound remaining intact in human serum after 6 hr: Most of both NRH and NRH-triacetate remained intact
[6]; up to 24 hr, p<0.05
  stability in human serum compared with NR: much more stable
